Reference: US11986493B2 (University of Pittsburgh—Of the Commonwealth System of …, priority 2013, dated 2024)

Tested on: subjects with pulmonary hypertension (WHO group I PAH, WHO group III PH)
Experiment: Right heart catheterization: right heart/pulmonary artery hemodynamics, thermodilution cardiac output, PVR and SVR after inhaled NO and nebulized nitrite
Type: in vivo, human
Protocol: A total of 6 subjects with a confirmed diagnosis of pulmonary hypertension and meeting all inclusion/exclusion criteria were enrolled in the study which entailed a single right heart catheterization. The study population consisted of subjects with WHO group I PAH (n=3) and subjects with WHO group III PH (n=3) which received the dose escalation paradigm:
During the study right heart/pulmonary artery hemodynamics were measured as well as noninvasive systemic blood pressure monitoring and simultaneous RV echocardiography. Subjects were tested for the changes in pulmonary vascular resistance (PVR) measured by right heart catheterization and using thermodilution cardiac output measurement at time zero, at times 15, 30 and 45 minutes after completion of each nebulization dose.
Following right heart catheterization, the patient was stabilized for 20 minutes. Baseline blood collections and hemodynamic measurements were performed, followed by treatment with 40 ppm inhaled NO gas for […] with repeat hemodynamic measurements performed.
After stopping inhaled NO gas, a single dose of sildenafil was given if patients were on background sildenafil therapy at previously prescribed doses. 45-minutes after sildenafil dose baseline hemodynamics were performed.
Subjects were monitored carefully during and after the study treatment.
The study was conducted at the 3rd FL Catheterization Laboratory at Presbyterian Hospital of the University of Pittsburgh Medical Center (UPMC). Baseline vasoreactivity was recorded after Inhaled NO at 40 ppm for […]. […] Subjects were instructed to breathe as calmly, and deeply as possible until no more mist was formed in the nebulizer chamber. Subjects were also instructed to hold their breath for approximately 10 seconds after inhalation to allow the study drug to reach deep into the lungs.

[1] = Patient 2, nitrite 45 mg inhaled, 60 min
[2] = Patient 2, nitrite 90 mg inhaled, 15 min
[3] = Patient 2, nitrite 90 mg inhaled, 30 min
[4] = Patient 2, nitrite 90 mg inhaled, 45 min
[5] = Patient 2, nitrite 90 mg inhaled, 60 min
[6] = Patient 3, nitrite 45 mg inhaled, 15 min
[7] = Patient 3, nitrite 45 mg inhaled, 30 min
[8] = Patient 3, nitrite 45 mg inhaled, 45 min
[9] = Patient 3, nitrite 45 mg inhaled, 60 min
[10] = Patient 3, nitrite 90 mg inhaled, 15 min
[11] = Patient 3, nitrite 90 mg inhaled, 30 min
[12] = Patient 3, nitrite 90 mg inhaled, 45 min
[13] = Patient 3, nitrite 90 mg inhaled, 60 min

Q: Which results are given for `O=NO` [nitrite, sodium nitrite]?
A: CI [1]: 3.89; CO [1]: 7.5; PAD [1]: 21; PAS [1]: 64; PCWP [1]: 8; PVR [1]: 3.65; PVR/SVR [1]: 0.32; RA [1]: 4; SVR [1]: 11.38; TPR [1]: 4.71; mPAP [1]: 35.34; CI [2]: 3.81; CO [2]: 7.35; PAD [2]: 20; PAS [2]: 57; PCWP [2]: 8; PVR [2]: 3.31; PVR/SVR [2]: 0.25; RA [2]: 2; SVR [2]: 13.06; TPR [2]: 4.40; mPAP [2]: 32.34; CI [3]: 4.60; CO [3]: 8.87; PAD [3]: 22; PAS [3]: 60; PCWP [3]: 6; PVR [3]: 3.23; PVR/SVR [3]: 0.31; RA [3]: 3; SVR [3]: 10.41; TPR [3]: 3.91; mPAP [3]: 34.67; CI [4]: 4.19; CO [4]: 8.09; PAD [4]: 21; PAS [4]: 62; PCWP [4]: 7; PVR [4]: 3.42; PVR/SVR [4]: 0.28; RA [4]: 3; SVR [4]: 12.12; TPR [4]: 4.29; mPAP [4]: 34.67; CI [5]: 4.56; CO [5]: 8.8; PAD [5]: 22; PAS [5]: 68; PCWP [5]: 6; PVR [5]: 3.56; PVR/SVR [5]: 0.33; RA [5]: 5; RVD [5]: 3; RVS [5]: 62; SVR [5]: 10.76; TPR [5]: 4.24; mPAP [5]: 37.34; CI [6]: 3.19; CO [6]: 6.63; PAD [6]: 19; PAS [6]: 80; PCWP [6]: 14; PVR [6]: 3.82; PVR/SVR [6]: 0.45; RA [6]: 12; SVR [6]: 8.55; TPR [6]: 5.93; mPAP [6]: 39.34; CI [7]: 3.08; CO [7]: 6.4; PAD [7]: 20; PAS [7]: 70; PCWP [7]: 15; PVR [7]: 3.39; PVR/SVR [7]: 0.37; RA [7]: 10; SVR [7]: 9.22; TPR [7]: 5.73; mPAP [7]: 35.67; CI [8]: 3.17; CO [8]: 6.6; PAD [8]: 20; PAS [8]: 74; PCWP [8]: 14; PVR [8]: 3.64; PVR/SVR [8]: 0.42; RA [8]: 13; SVR [8]: 8.64; TPR [8]: 5.76; mPAP [8]: 38.01; CI [9]: 3.07; CO [9]: 6.39; PAD [9]: 20; PAS [9]: 70; PCWP [9]: 14; PVR [9]: 3.55; PVR/SVR [9]: 0.40; RA [9]: 13; SVR [9]: 8.92; TPR [9]: 5.74; mPAP [9]: 36.67; CI [10]: 3.69; CO [10]: 7.67; PAD [10]: 19; PAS [10]: 69; PCWP [10]: 13; PVR [10]: 2.96; PVR/SVR [10]: 0.40; RA [10]: 12; SVR [10]: 7.48; TPR [10]: 4.65; mPAP [10]: 35.67; CI [11]: 2.41; CO [11]: 5.01; PAD [11]: 17; PAS [11]: 73; PCWP [11]: 11; PVR [11]: 4.92; PVR/SVR [11]: 0.39; RA [11]: 10; SVR [11]: 12.51; TPR [11]: 7.12; mPAP [11]: 35.67; CI [12]: 2.94; CO [12]: 6.11; PAD [12]: 19; PAS [12]: 71; PCWP [12]: 12; PVR [12]: 3.98; PVR/SVR [12]: 0.42; RA [12]: 11; SVR [12]: 9.55; TPR [12]: 5.95; mPAP [12]: 36.34; CI [13]: 3.34; CO [13]: 6.95; PAD [13]: 20; PAS [13]: 72; PCWP [13]: 14; PVR [13]: 3.36; PVR/SVR [13]: 0.36; RA [13]: 9; RVD [13]: 8; RVS [13]: 71; SVR [13]: 9.31; TPR [13]: 5.37
